From publication PMC6385123, “Design, Synthesis, Anticancer Evaluation and Molecular Modeling of Novel Estrogen Derivatives” (Molecules, 2019)
Read-outs that look alike come from different tables or passages of the source.

Key:
MCF-7 cells = assay: In vitro cytotoxic activity, MTT assay, MCF-7; assay type: cell-based, human; settings: MTT assay, MCF-7 cell line, read-out: IC50 (Mean ± SEM) MCF-7
Protocol: (§1) MCF-7 (human breast cancer) cells, obtained from Sigma-Aldrich Chemie GmbH, Taufkirchen, Germany, were propagated in RPMI-1640 supplemented with 10% heat inactivated FBS, 2 mM L-glutamine, and 1% standard antibiotic solution. Cells were incubated in a 5% CO2 humidified incubator at 37 °C and passaged bi-weekly. The in vitro anti-proliferative activity of the newly synthesized derivatives was assayed using standard MTT technique. Results were expressed as IC50. Experiments were repeated at least in triplicate, to obtain good reproducibility between replicate wells with standard errors below 10%. Furthermore, the cytotoxic effects of the prepared derivatives were evaluated against normal nonmalignant cells, non-tumorigenic MCF-10A, in order to find out if the synthesized derivatives have toxicity against normal cells. Additionally, results were compared with reference compounds (cisplatin and milaplatin) as positive controls.

MCF-10A cells = assay: In vitro cytotoxicity against normal non-tumorigenic cells, MTT assay; assay type: cell-based; settings: normal non-tumorigenic MCF-10A cells, read-out: IC50 (Mean ± SEM) MCF-10A
Protocol: as §1

[1] = molecular target: T1, p53 ubiquitination (GST-tagged HDM2) (Homo sapiens, UniProt Q00987); assay: In vitro p53 ubiquitination assay; assay type: biochemical; settings: GST-tagged HDM2, p53, ubiquitin, E1 and E2 (UbcH5B); read-out: IC50 (Mean ± SEM) In Vitro p53 Ubiquitination
T1 construct: GS4b-MDM2 RING beads were prepared as above and were used in place of the full-length MDM2; made in house; host or cells: Escherichia coli BL21
T1 sequence (Q00987 whole entry): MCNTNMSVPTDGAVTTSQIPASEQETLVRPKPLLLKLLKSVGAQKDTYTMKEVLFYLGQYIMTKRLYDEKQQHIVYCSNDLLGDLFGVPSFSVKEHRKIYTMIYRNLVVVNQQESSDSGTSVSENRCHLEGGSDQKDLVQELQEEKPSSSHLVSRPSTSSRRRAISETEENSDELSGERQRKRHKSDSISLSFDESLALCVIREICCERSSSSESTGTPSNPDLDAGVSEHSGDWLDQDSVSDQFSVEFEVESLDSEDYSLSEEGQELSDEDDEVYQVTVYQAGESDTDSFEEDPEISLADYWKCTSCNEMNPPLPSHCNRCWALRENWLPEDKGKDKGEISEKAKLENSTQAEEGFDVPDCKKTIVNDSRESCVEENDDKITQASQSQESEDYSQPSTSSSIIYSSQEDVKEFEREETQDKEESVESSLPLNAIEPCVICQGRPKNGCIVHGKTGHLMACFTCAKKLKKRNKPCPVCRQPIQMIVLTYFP
Protocol: Different prepared derivatives were evaluated for their inhibitory potential against p53 ubiquitination. The method is based on incubating different compounds with GST-tagged HDM2, immobilized on glutathione-Sepharose, p53, ubiquitin, E1 and E2 (UbcH5B) ligases. The buffer contained ATP as detailed by Gomha and Abdelaziz. The reaction products were then resolved by SDSPAGE and p53 ubiquitination and were quantified by Western blotting using an anti-p53 antibody.
Briefly, rGSH-S-transferase-tagged MDM2 (GST-MDM2) was expressed in Escherichia coli BL21 cells using 1 mM isopropyl-thio-b-D-galactoside for 3 h. The enzyme was then purified on glutathione-sepharose beads (Amersham). Beads were washed with Tris (pH 7.5). The reaction contained fluorescent ubiquitin (5 µg; Invitrogen), 50 ng mammalian E1 (Enzo), 200 ng human rUbcH5B E2 (Enzo), 200 ng His-p53 (Enzo) and buffer [50 mM Tris pH 8,2 mM dithiothreitol, 5 mM MgCl2, 2 mM adenosine triphosphate (ATP)]. The MPD-compound or control mixture was dose-titrated onto GS4b-MDM2 beads. Incubation at 37 °C was followed by shaking (1200 rpm, 1 h). The reaction was terminated with 3× sodium dodecyl sulfate sample buffer. Finally, unbound fluorescent ubiquitin was drained and the total fluorescent ubiquitin signal was measured using a plate reader (Safire).
The procedure was performed similar to the aforementioned protocol except that 5 µg unlabeled ubiquitin (Enzo) was used. Following incubation, resolving of reaction products was performed using sodium dodecyl sulfate PGE. Analysis was done by western blotting using anti-p53 DO-1. For the MDM2 RING auto-ubiquitination assay, GS4b-MDM2 RING beads were prepared as above and were used in place of the full-length MDM2.

p53 ubiquitination = assay: In vivo ubiquitination of p53 (transfected cells); assay type: cell-based; settings: cells transfected with p53, MDM2, HIS-ubiquitin; exposed 6 h; read-out: IC50 (Mean ± SEM) In Vivo p53 Ubiquitination
Protocol: In vivo ubiquitination of p53 was assayed according to [38] Cells were grown for 24 h (50% confluency) before transfection of 1 µg p53, 4 µg MDM2 and 1 µg HIS-ubiquitin with Gene Juice reagent. Grown for another 20 h, cells were exposed to prepared derivatives or controls for 6 h and MG132 for 4 h, then washed and collected in PBS, where 5% of the solution was kept as an input. The remaining pelleted cells (95% after centrifugation) were lysed in 700 µL of ubiquitin buffer A (6 M guanidinium HCl, 300 mM NaCl, 50 mM phosphate pH 8.0, 100 µg/mL N-ethylmaleimide), and sonicated for 5 min at 20% amplitude. Lysates were incubated overnight with Invitrogen Dynabeads His-Tag matrix and washed once with ubiquitin buffers A, B, C and phosphate buffered saline (ubiquitin buffer B: Mix ubiquitin buffer A and ubiquitin buffer C 1:1; ubiquitin buffer C: 300 mM NaCl, 50 mM phosphate pH 8.0, 100 µg/mL N-ethylmaleimide). The washed lysates were resolved by 8% sodium dodecyl sulfate–polyacrylamide gel electrophoresis, followed by immunoblotting with a p53 (DO-1) antibody.

EGFR = EGFR (Homo sapiens, UniProt P00533); assay: EGFR kinase inhibition assay; assay type: biochemical; settings: 8 μM ATP, poly(Glu,Tyr)4:1 substrate; read-out: IC50 (Mean ± SEM) EGFR
EGFR, sequence (P00533 25-1210): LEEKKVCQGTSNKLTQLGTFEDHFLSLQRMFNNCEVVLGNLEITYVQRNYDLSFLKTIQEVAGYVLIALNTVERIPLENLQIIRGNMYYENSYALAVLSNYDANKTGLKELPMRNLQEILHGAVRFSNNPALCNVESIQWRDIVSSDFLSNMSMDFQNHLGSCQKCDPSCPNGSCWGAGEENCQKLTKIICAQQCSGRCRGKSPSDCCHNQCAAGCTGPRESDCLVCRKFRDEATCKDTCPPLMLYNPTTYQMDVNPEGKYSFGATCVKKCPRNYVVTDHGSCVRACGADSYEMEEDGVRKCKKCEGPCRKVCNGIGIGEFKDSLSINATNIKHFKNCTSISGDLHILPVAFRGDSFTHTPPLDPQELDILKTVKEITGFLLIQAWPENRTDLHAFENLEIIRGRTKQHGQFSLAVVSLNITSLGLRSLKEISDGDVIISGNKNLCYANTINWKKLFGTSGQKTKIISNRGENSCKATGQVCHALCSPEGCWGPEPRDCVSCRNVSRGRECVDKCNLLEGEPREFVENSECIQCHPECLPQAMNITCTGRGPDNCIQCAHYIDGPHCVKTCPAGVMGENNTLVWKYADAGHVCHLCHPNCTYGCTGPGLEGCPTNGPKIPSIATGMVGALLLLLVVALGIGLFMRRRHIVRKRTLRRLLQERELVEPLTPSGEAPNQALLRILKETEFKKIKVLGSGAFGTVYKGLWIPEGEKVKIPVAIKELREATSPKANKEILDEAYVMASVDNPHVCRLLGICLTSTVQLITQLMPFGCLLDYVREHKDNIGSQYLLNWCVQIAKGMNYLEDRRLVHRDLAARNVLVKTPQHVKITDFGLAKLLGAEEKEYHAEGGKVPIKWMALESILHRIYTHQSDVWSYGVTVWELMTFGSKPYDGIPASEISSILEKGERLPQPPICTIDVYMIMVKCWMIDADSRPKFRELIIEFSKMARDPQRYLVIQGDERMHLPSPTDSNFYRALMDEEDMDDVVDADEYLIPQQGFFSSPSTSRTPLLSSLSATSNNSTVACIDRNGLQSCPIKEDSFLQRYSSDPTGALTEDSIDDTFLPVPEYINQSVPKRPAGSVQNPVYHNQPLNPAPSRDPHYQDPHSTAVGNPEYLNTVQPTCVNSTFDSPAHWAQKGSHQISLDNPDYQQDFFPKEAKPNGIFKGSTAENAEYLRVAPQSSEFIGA
Protocol: (§2) The EGFR and VEGFR-2 kinase activities were assayed as previously described. The assay was performed in 96-well plates pre-coated with 20 μg mL^−1 poly (Glu, Tyr)4:1 (Sigma-Aldrich Chemie GmbH, Taufkirchen, Germany) as a substrate. In each well, 85 μL of an 8 μM ATP solution and 10 μL of the compound were added at varying concentrations. Experiments were repeated three times. Reactions started with 5 μL of different kinases and incubation for 1 h at 37 °C. Plates were 3X-washed with PBS/0.1% Tween 20. Accordingly, 100 μL of anti-phosphotyrosine (PY99; 1:500 dilutions) antibody was added, and plates were incubated for another hour at room temperature. Plates were then 3X-washed, and addition of goat anti-mouse IgG horseradish peroxidase (100 μL; 1:2000 dilution) diluted in T-PBS containing 5 mg mL^−1 BSA followed. Plates were further incubated at room temperature for another hour, and then 3X-washed. Finally, 100 μL (developing solution, 0.03% H2O2, 2 mg mL^−1 o-phenylenediamine/citrate buffer, 0.1 M, pH 5.5) was added and incubation continued until color development. The reaction was stopped by 100 μL of 2M H2SO4, and the absorption was measured at 492 nm using a multiwell spectrophotometer (VERSAmax™). The inhibition rate (%) was calculated using the equation:Inhibition rate (%) = [1 − (A492/A492Control)] × 100%(1)

VEGFR-2 = VEGFR-2 (Homo sapiens, UniProt P35968); assay: VEGFR-2 kinase inhibition assay; assay type: biochemical; settings: 8 μM ATP, poly(Glu,Tyr)4:1 substrate; read-out: IC50 (Mean ± SEM) VEGFR-2
VEGFR-2, sequence (P35968 20-1356): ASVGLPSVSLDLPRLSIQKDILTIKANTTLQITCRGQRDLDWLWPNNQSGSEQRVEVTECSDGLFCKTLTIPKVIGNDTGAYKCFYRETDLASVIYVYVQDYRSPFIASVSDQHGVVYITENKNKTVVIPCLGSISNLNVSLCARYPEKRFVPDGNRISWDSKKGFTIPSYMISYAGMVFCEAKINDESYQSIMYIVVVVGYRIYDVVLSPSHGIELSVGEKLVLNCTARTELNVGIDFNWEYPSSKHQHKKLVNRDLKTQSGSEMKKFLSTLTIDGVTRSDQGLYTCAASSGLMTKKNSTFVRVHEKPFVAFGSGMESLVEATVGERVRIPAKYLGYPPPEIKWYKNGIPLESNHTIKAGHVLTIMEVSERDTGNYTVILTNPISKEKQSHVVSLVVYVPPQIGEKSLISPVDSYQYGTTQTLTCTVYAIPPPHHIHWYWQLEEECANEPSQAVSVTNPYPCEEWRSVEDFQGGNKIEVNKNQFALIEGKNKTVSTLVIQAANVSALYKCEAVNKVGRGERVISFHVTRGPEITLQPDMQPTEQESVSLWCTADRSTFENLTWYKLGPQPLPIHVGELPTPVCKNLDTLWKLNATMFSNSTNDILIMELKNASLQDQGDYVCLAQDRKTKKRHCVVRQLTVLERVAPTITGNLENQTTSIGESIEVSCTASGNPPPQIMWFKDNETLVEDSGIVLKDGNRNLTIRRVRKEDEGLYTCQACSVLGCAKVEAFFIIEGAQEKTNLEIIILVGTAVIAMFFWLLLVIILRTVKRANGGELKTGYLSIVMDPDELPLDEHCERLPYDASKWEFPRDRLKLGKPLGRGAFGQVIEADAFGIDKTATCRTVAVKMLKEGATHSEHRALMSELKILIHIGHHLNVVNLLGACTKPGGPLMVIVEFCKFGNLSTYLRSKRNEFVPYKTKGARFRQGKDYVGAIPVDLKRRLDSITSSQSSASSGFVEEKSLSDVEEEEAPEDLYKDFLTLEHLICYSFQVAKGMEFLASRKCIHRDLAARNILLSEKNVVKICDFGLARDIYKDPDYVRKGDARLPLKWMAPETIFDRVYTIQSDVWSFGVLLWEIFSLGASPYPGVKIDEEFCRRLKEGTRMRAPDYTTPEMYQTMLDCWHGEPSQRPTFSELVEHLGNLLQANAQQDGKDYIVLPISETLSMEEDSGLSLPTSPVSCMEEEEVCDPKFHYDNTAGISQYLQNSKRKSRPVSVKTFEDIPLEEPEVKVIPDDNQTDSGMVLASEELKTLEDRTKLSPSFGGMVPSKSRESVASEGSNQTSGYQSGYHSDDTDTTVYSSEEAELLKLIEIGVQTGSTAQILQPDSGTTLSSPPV
Protocol: as §2

Compound | IC50 (MCF-7 cells) | IC50 (MCF-10A cells) | IC50 (MCF-7 cells; Homo sapiens, MCF7) | IC50 (MCF-10A cells; Homo sapiens) | IC50 [1] | IC50 (p53 ubiquitination) | IC50 (EGFR) | IC50 (VEGFR-2) | melting point
N.N.[Cl][Pt][Cl] [Cisplatin, reference compound] | 13.34 ± 0.11 µM | 9.55 ± 0.54 µM | – | – | – | – | – | – | –
CC12CCC3c4ccc(O)cc4CCC3C1CC1=C2NC(=O)NC1c1ccccc1Cl (stereo not shown) [Compound 3a, 2′-Oxo-6′-(2-chlorophenyl)-estra-1(10),2,4,16(17)-tetraien-[17,16-d]pyrimidino-3-ol] | – | – | 35.7 ± 0.4 µM | 401 ± 11.6 µM | 47.6 ± 0.6 µM | 600 ± 8.6 nM | 127 ± 3.7 nM | 47 ± 3 nM | 266 to 268 °C
CC12CCC3c4ccc(O)cc4CCC3C1CC1=C2NC(=O)NC1c1ccc(Cl)cc1 (stereo not shown) [Compound 3b, Oxo-6′-(4-chlorophenyl)-estra-1(10),2,4,16(17)-tetraien-[17,16-d]pyrimidino-3-ols] | – | – | 38.6 ± 0.87 µM | 422 ± 13.8 µM | 53.6 ± 0.78 µM | 630 ± 9.5 nM | 155 ± 5.1 nM | 48 ± 1.4 nM | 308 to 310 °C
CC12CCC3c4ccc(O)cc4CCC3C1CC1=C2NC(=S)NC1c1ccccc1Cl (stereo not shown) [Compound 4a, 2′-Thione-6′-(2-chlorophenyl)-estra-1(10),2,4,16(17)-tetraien-[17,16-d]pyrimidine-3-ol] | – | – | 28.64 ± 0.28 µM | 302 ± 8.86 µM | 36.6 ± 0.58 µM | 450 ± 8.5 nM | 95 ± 2.8 nM | 37 ± 2.6 nM | 290 to 292 °C
CC12CCC3c4ccc(O)cc4CCC3C1CC1=C2NC(=S)NC1c1ccc(Cl)cc1 (stereo not shown) [Compound 4b, 2’-Thione-6’-(4-chlorophenyl)-estra-1(10),2,4,16(17)-tetraien-[17,16-d]-pyrimidine-3-ol] | – | – | 31.8 ± 0.39 µM | 311 ± 9.59 µM | 45.8 ± 0.49 µM | 570 ± 9.7 nM | 98 ± 0.9 nM | 43 ± 1.8 nM | 333 to 335 °C
CC12CCC3c4ccc(O)cc4CCC3C1CC1=C2NC(=N)NC1c1ccc(Cl)cc1 (stereo not shown) [Compound 5b, 2′-Imino-6′-(4-chlorophenyl)-estra-1(10),2,4,16(17)-tetraien-[17,16-d]pyrimidino-3-ol] | – | – | 22.5 ± 0.24 µM | 235 ± 7.76 µM | 27.6 ± 0.34 µM | 310 ± 5.3 nM | 88 ± 1.3 nM | 29 ± 0.3 nM | 326 to 328 °C
CC12CCC3c4ccc(O)cc4CCC3C1CC1=C2NC(=NC#N)NC1c1ccccc1Cl (stereo not shown) [Compound 6a, 2′-Cyanoimino-6′-(2-chlorophenyl)-estra-1(10),2,4,16(17)-tetraien-[17,16-d]pyrimidino-3-ol] | – | – | 24.57 ± 0.16 µM | 244 ± 7.78 µM | 28.47 ± 0.25 µM | 320 ± 6.3 nM | 90 ± 0.6 nM | 31 ± 4.1 nM | 223 °C
CC12CCC3c4ccc(O)cc4CCC3C1CC1=C2NC(=NC#N)NC1c1ccc(Cl)cc1 (stereo not shown) [Compound 6b, 2′-Cyanoimino-6′-(4-chlorophenyl)-estra-1(10),2,4,16(17)-tetraien-[17,16-d]-pyrimidino-3-ol] | – | – | 26.46 ± 0.17 µM | 277 ± 8.23 µM | 29.5 ± 0.36 µM | 420 ± 7.4 nM | 91 ± 2.5 nM | 33 ± 1 nM | 282 to 284 °C
CC12CCC3c4ccc(O)cc4CCC3C1CC1C2=NN(C(N)=O)C1c1ccccc1Cl (stereo not shown) [Compound 7a, 1-Carbamoyl-1′H-(2’H)-5′-(2-chlorophenyl)-estra-1(10),2,4-trien-[17,16-c]pyrazoline-3-ol] | – | – | 41.1 ± 0.84 µM | 466 ± 17.3 µM | 66.7 ± 0.86 µM | 860 ± 6.8 nM | 188 ± 1.6 nM | 55 ± 1.3 nM | 298 to 300 °C
CC12CCC3c4ccc(O)cc4CCC3C1CC1C2=NN(C(N)=O)C1c1ccc(Cl)cc1 (stereo not shown) [Compound 7b, 1-Carbamoyl-1’H-(2’H)-5’-(4-chlorophenyl)-estra-1(10),2,4-trien-[17,16-c]pyrazoline-3-ol] | – | – | 46.2 ± 0.93 µM | 512 ± 16.6 µM | 77.6 ± 0.97 µM | 890 ± 9.9 nM | 227 ± 0.4 nM | 57 ± 0.5 nM | 248 to 250 °C
CC12CCC3c4ccc(O)cc4CCC3C1CC1C2=NN(C(N)=S)C1c1ccccc1Cl (stereo not shown) [Compound 8a, 1-Thiocarbamoyl-1′H-(2′H)-5′-(2-chlorophenyl)-estra-1(10),2,4-trien-[17,16-c]pyrazoline-3-ol] | – | – | 39.5 ± 0.75 µM | 435 ± 14.6 µM | 55.4 ± 0.69 µM | 740 ± 8.7 nM | 166 ± 2.8 nM | 51 ± 1.7 nM | 294 to 296 °C
Oc1cc(O)c2cc(O)c(-c3cc(O)c(O)c(O)c3)[o+]c2c1 [Delphinidin, reference compound] | – | – | – | – | – | – | 6270 ± 0.76 nM | 5090 ± 1.2 nM | –
Milaplatin [reference compound] | 18.43 ± 0.13 µM | 18.3 ± 0.34 µM | – | – | – | – | – | – | –
